# Laboratory results reported in patent publication US20210236476A1, “METHODS OF TREATING CANCER WITH SMALL MOLECULE PD-L1 INHIBITORS” (CHEMOCENTRYX, INC., priority 2018, published 2021).
# Biological target: T1, human PD-L1 / human PD-1 interaction (Homo sapiens, UniProt Q9NZQ7)
# T1 construct: purchased R&D (PD-L1); ACRO Biosystems (PD-1, biotin)
# Assay: ELISA of PD-1/PD-L1 interaction
# Type: binding
# In short: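 Plates coated with 1 μg/mL human PD-L1 and blocked with BSA; serially diluted (1:5) compounds plus biotinylated human PD-1 (0.3 μg/mL) incubated 1 h at 37° C. Bound PD-1 detected with streptavidin-HRP/TMB, absorbance at 450 nm.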
# T1 sequence (Q9NZQ7 19-239 limits assumed): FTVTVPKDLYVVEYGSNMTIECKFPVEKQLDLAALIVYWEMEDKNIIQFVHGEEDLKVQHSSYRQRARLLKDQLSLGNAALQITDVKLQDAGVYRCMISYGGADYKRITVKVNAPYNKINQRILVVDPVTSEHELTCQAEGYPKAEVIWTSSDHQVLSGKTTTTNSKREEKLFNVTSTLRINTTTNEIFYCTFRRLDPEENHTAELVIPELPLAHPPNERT
row,SMILES,IC50
1,C[C@@](CO)(NCc1cc(Cl)c(O[C@@H]2c3cccc(-c4cccc(OCCCN5CC(O)C5)c4Cl)c3C[C@@H]2F)cc1OCc1cncc(C#N)c1)C(=O)O,< 5 nM
2,Cc1c(OCCCN2CCC(O)CC2)cccc1-c1cccc2c1CC[C@@H]2Oc1cc(OCc2cncc(C#N)c2)c(CN2CC[C@H](O)C2)cc1Cl,< 5 nM
3,Cc1c(OCCCN2CCCC[C@@H]2C)cccc1-c1cccc2c1CC[C@@H]2Oc1cc(OCc2cc(C#N)cc(C#N)c2)c(CN[C@H]2CCC(=O)NC2)cc1Cl,< 5 nM
4,CN1CCC(COc2cccc(-c3cccc4c3CC[C@@H]4Oc3cc(OCc4cncc(C#N)c4)c(CNC[C@H]4CCC(=O)N4)cc3Cl)c2Cl)C1 (stereo partly drawn),< 5 nM
5,CC(C)N1CCC(COc2cccc(-c3cccc4c3CC[C@@H]4Oc3cc(OCc4cncc(C#N)c4)c(CNC[C@@H]4CCC(=O)N4)cc3Cl)c2Cl)C1 (stereo partly drawn),< 5 nM
6,CC(CO)(NCc1cc(Cl)c(O[C@H]2CCc3c(-c4cccc(OCCCN5CC6(CC(O)C6)C5)c4Cl)cccc32)cc1OCc1cncc(C#N)c1)C(=O)O (stereo partly drawn),< 5 nM
7,CCOc1cc(O[C@H]2CCc3c(-c4cccc(OCCCN5CCC5(C)C)c4C)cccc32)c(Cl)cc1CNC[C@@H]1CCC(=O)N1,< 5 nM
8,CC(=O)OC1CCN(CCCOc2cccc(-c3cccc4c3CC[C@@H]4Oc3cc(OCc4cncc(C#N)c4)c(CN[C@@H]4CCCC[C@@H]4O)cc3Cl)c2Cl)CC1,< 5 nM
9,N#Cc1cncc(COc2cc(O[C@H]3CCc4c(-c5cccc(OCCCN6CC7(CC(F)C7)C6)c5Cl)cccc43)c(Cl)cc2CN[C@@H]2CCC[C@@H]2O)c1,< 5 nM
10,Cc1c(OCCCN2CCC(F)CC2)cccc1-c1cccc2c1CC[C@@H]2Oc1cc(OCc2cc(C#N)cc(C#N)c2)c(CN[C@@H]2CCC[C@@H]2O)cc1Cl,< 5 nM
11,CCOc1cc(O[C@H]2CCc3c(-c4cccc(OCCCN5CCC(F)CC5)c4C)cccc32)c(Cl)cc1CN[C@@H](CO)C(=O)O,< 5 nM
12,Cc1c(OCCCN2CCC(O)CC2)cccc1-c1cccc2c1CC[C@@H]2Oc1cc(OCc2cncc(C#N)c2)c(CN[C@@H]2CCCC[C@H]2O)cc1Cl,< 5 nM
13,Cc1c(OCCCN2CCCCC2)cccc1-c1cccc2c1CC[C@@H]2Oc1cc(OCc2cncc(C#N)c2)c(CNC[C@H]2CCC(=O)N2)cc1Cl,< 5 nM
14,Cc1c(OCCCN2CCC(O)CC2)cccc1-c1cccc2c1CC[C@@H]2Oc1cc(OCc2cncc(C#N)c2)c(CN[C@@](C)(CO)C(=O)O)cc1Cl,< 5 nM
15,N#Cc1cncc(COc2cc(O[C@H]3CCc4c(-c5cccc(OCCCN6CCC(F)CC6)c5Cl)cccc43)c(Cl)cc2CN[C@H]2CCOC[C@@H]2O)c1 [drawing 235],< 5 nM
16,Cc1c(OCCCN2CC(C)(O)C2)cccc1-c1cccc2c1CC[C@@H]2Oc1cc(OCc2cncc(C#N)c2)c(CNCC2CCC(=O)N2)cc1Cl (stereo partly drawn),< 5 nM
17,Cc1c(OCCCN2CCC(C)(O)CC2)cccc1-c1cccc2c1CC[C@@H]2Oc1cc(OCc2cc(C#N)cc(C#N)c2)c(CNC[C@@H]2CCC(=O)N2)cc1Cl,< 5 nM
18,CC1(C)CC(O)CCN1CCCOc1cccc(-c2cccc3c2CC[C@@H]3Oc2cc(OCc3cncc(C#N)c3)c(CN[C@@H]3CCCC[C@@H]3O)cc2Cl)c1Cl (stereo partly drawn),< 5 nM
19,C[C@@](CO)(NCc1cc(Cl)c(O[C@H]2CCc3c(-c4cccc(OCCCN)c4Cl)cccc32)cc1OCc1cncc(C#N)c1)C(=O)O,< 5 nM
20,N#Cc1cncc(COc2cc(O[C@H]3CCc4c(-c5cccc(OCCCN6CCC(F)CC6)c5Cl)cccc43)c(Cl)cc2CN[C@@H]2CCOC[C@H]2O)c1,< 5 nM

row,SMILES,IC50
1,C[C@@](CO)(NCc1cc(Cl)c(O[C@H]2CCc3c(-c4cccc(OCCCN5CCC5)c4Cl)cccc32)cc1OCc1cncc(C#N)c1)C(=O)O,< 5 nM
2,N#Cc1cncc(COc2cc(O[C@H]3CCc4c(-c5cccc(OCCCN6CC(O)C6)c5Cl)cccc43)c(Cl)cc2CNCC(=O)O)c1,< 5 nM
3,N#Cc1cncc(COc2cc(O[C@H]3CCc4c(-c5cccc(OCCCN6CCCCC6)c5Cl)cccc43)c(Cl)cc2CNC[C@H]2CCC(=O)N2)c1,< 5 nM
4,Cc1c(OCCCN2CCC(F)CC2)cccc1-c1cccc2c1CC[C@@H]2Oc1cc(OCc2cncc(C#N)c2)c(CN[C@H](C(=O)O)[C@@H](C)O)cc1Cl,< 5 nM
5,Cc1c(OCCCN2CC(O)C2)cccc1-c1cccc2c1CC[C@@H]2Oc1cc(OCc2cncc(C#N)c2)c(CNCC2CCC(=O)N2)cc1Cl (stereo partly drawn),< 5 nM
6,Cc1c(OCCCN2CCC(F)CC2)cccc1-c1cccc2c1CC[C@@H]2Oc1cc(OCc2cncc(C#N)c2)c(CNCC2CCC(=O)N2)cc1Cl (stereo partly drawn),< 5 nM
7,CCOc1cc(O[C@H]2CCc3c(-c4cccc(OCCCN5CC[C@@H](O)C5)c4C)cccc32)c(Cl)cc1CNC(CO)CO,< 5 nM
8,C[C@@H](O)[C@H](NCc1cc(Cl)c(O[C@H]2CCc3c(-c4cccc(OCCCN5CC(O)C5)c4Cl)cccc32)cc1OCc1cncc(C#N)c1)C(=O)NS(C)(=O)=O,< 5 nM
9,CCOc1cc(O[C@H]2CCc3c(-c4cccc(OCCCN5C(C)CC5C)c4C)cccc32)c(Cl)cc1CNC[C@@H]1CCC(=O)N1 (stereo partly drawn),< 5 nM
10,CCN1CCC(COc2cccc(-c3cccc4c3CC[C@@H]4Oc3cc(OCc4cncc(C#N)c4)c(CNC[C@@H]4CCC(=O)N4)cc3Cl)c2Cl)C1 (stereo partly drawn),< 5 nM
11,CC(C)OC(=O)[C@](C)(CO)NCc1cc(Cl)c(O[C@H]2CCc3c(-c4cccc(OCCCN5CC(O)C5)c4Cl)cccc32)cc1OCc1cncc(C#N)c1,< 5 nM
12,N#Cc1cncc(COc2cc(O[C@H]3CCc4c(-c5cccc(OCCCN6CCCCC6)c5Cl)cccc43)c(Cl)cc2CN[C@@H]2CCCC[C@@H]2O)c1,< 5 nM
13,Cc1c(OCCCN2CCC(C)CC2)cccc1-c1cccc2c1CC[C@@H]2Oc1cc(OCc2cc(C#N)cc(C#N)c2)c(CNC[C@H]2CCC(=O)N2)cc1Cl,< 5 nM
14,N#Cc1cncc(COc2cc(O[C@H]3CCc4c(-c5cccc(OCCCN6CC7(CC(F)C7)C6)c5Cl)cccc43)c(Cl)cc2CNC[C@@H]2CCC(=O)N2)c1,< 5 nM
15,N#Cc1cncc(COc2cc(O[C@H]3CCc4c(-c5cccc(OCCCN6CC[C@H](F)C6)c5Cl)cccc43)c(Cl)cc2CN[C@@H]2CCCC[C@@H]2O)c1,< 5 nM
16,CC1(O)CCN(Cc2cc(Cl)c(O[C@H]3CCc4c(-c5cccc(OCCCN6CCC(F)CC6)c5Cl)cccc43)cc2OCc2cncc(C#N)c2)CC1,< 5 nM
17,CCOC(=O)[C@](C)(CO)NCc1cc(Cl)c(O[C@H]2CCc3c(-c4cccc(OCCCN5CC(O)C5)c4Cl)cccc32)cc1OCc1cncc(C#N)c1,< 5 nM
18,N#Cc1cncc(COc2cc(O[C@H]3CCc4c(-c5cccc(OCCCN6CCC(O)CC6)c5Cl)cccc43)c(Cl)cc2CNCC2CCC(=O)N2)c1 (stereo partly drawn),< 5 nM
19,Cc1c(OCCCN2CCC(O)CC2)cccc1-c1cccc2c1CC[C@@H]2Oc1cc(OCc2cncc(C#N)c2)c(CN2CCC(O)CC2)cc1Cl,< 5 nM
20,Cc1c(OCCCN2CCC(O)CC2)cccc1-c1cccc2c1CC[C@@H]2Oc1cc(OCc2cncc(C#N)c2)c(CN2CCC(C)(O)CC2)cc1Cl,< 5 nM

row,SMILES,IC50
1,Cc1c(OCCCN2CC[C@H](F)C[C@@H]2C)cccc1-c1cccc2c1CC[C@@H]2Oc1cc(OCc2cc(C#N)cc(C#N)c2)c(CN[C@H]2CCC(=O)NC2)cc1Cl,5 to 500 nM
2,N#Cc1cncc(COc2cc(O[C@H]3CCc4c(-c5cccc(OCCCN6CC7(CC(F)C7)C6)c5Cl)cccc43)c(Cl)cc2CN[C@@H]2CC[C@H]2O)c1,< 5 nM
3,C[C@@](CO)(NCc1cc(Cl)c(OC2CCc3c(-c4cccc(OCCCN5CC(O)C5)c4Cl)cc(F)cc32)cc1OCc1cncc(C#N)c1)C(=O)O (stereo partly drawn),< 5 nM
4,N#Cc1cncc(COc2cc(O[C@H]3CCc4c(-c5cccc(OCCCN6CCC(F)CC6)c5Cl)cccc43)c(Cl)cc2CN[C@H]2CC[C@@H]2O)c1,< 5 nM
5,N#Cc1cncc(COc2cc(O[C@H]3CCc4c(-c5cccc(OCCCN6CC[C@@H](F)C6)c5Cl)cccc43)c(Cl)cc2CN[C@@H]2CCCC[C@@H]2O)c1,< 5 nM
6,Cc1c(OCCCN2CCC(O)CC2)cccc1-c1cccc2c1CC[C@@H]2Oc1cc(OCc2cncc(C#N)c2)c(CN[C@H](C(=O)O)[C@@H](C)O)cc1Cl,< 5 nM
7,Cc1c(OCCCN2CCC(O)CC2)cccc1-c1cccc2c1CC[C@@H]2Oc1cc(OCc2cncc(C#N)c2)c(CN2CC(O)C2)cc1Cl,< 5 nM
8,N#Cc1cncc(COc2cc(O[C@H]3CCc4c(-c5cccc(OCCCN6CCC(F)CC6)c5Cl)cccc43)c(Cl)cc2CN[C@H]2CCC[C@H]2O)c1,< 5 nM
9,N#Cc1cncc(COc2cc(O[C@H]3CCc4c(-c5cccc(OCCCN6CCC(O)CC6)c5Cl)cccc43)c(Cl)cc2CNC(CO)CO)c1,< 5 nM
10,CC1(O)CN(Cc2cc(Cl)c(O[C@H]3CCc4c(-c5cccc(OCCCN6CCC(F)CC6)c5Cl)cccc43)cc2OCc2cncc(C#N)c2)C1,< 5 nM
11,Cc1c(OCCCN2CCC(O)CC2)cccc1-c1cccc2c1CC[C@@H]2Oc1cc(OCc2cc(C#N)cc(C#N)c2)c(CN[C@H](C(=O)O)[C@@H](C)O)cc1Cl,< 5 nM
12,Cc1c(OCCCN2CCCCC2)cccc1-c1cccc2c1CC[C@@H]2Oc1cc(OCc2cncc(C#N)c2)c(CNC[C@@H]2CCC(=O)N2)cc1Cl,< 5 nM
13,Cc1c(OCCCN2CCC(O)CC2)cccc1-c1cccc2c1CC[C@H]2Oc1cc(OCc2cncc(C#N)c2)c(CN[C@H](C(=O)O)[C@@H](C)O)cc1Cl,< 5 nM
14,Cc1c(OCCCN2CCC(O)CC2)cccc1-c1cccc2c1CC[C@@H]2Oc1cc(OCc2cncc(C#N)c2)c(CNC2(C(=O)O)CCC2)cc1Cl,< 5 nM
15,N#Cc1cncc(COc2cc(O[C@H]3CCc4c(-c5cccc(OCCCN6CCC(O)CC6)c5Cl)cccc43)c(Cl)cc2CNC[C@H]2CCC(=O)N2)c1,< 5 nM
16,N#Cc1cc(C#N)cc(COc2cc(O[C@H]3CCc4c(-c5cccc(OCCCN6CCC(F)CC6)c5Cl)cccc43)c(Cl)cc2CNC[C@H]2CCC(=O)N2)c1,< 5 nM
17,CCOc1cc(O[C@H]2CCc3c(-c4cccc(OCCCN5CCC(O)CC5)c4C)cccc32)c(Cl)cc1CN[C@H](C(=O)O)[C@@H](C)O,< 5 nM
18,N#Cc1cncc(COc2cc(O[C@H]3CCc4c(-c5cccc(OCCCN6CC7(C6)CC(F)(F)C7)c5Cl)cccc43)c(Cl)cc2CN[C@@H]2CCCC[C@@H]2O)c1,< 5 nM
19,N#Cc1cncc(COc2cc(O[C@H]3CCc4c(-c5cccc(OCCCN6CCC6)c5Cl)cccc43)c(Cl)cc2CN[C@@H]2CCCC[C@@H]2O)c1,< 5 nM
20,N#Cc1cncc(COc2cc(O[C@H]3CCc4c(-c5cccc(OCCCN6CC7(CC(O)C7)C6)c5Cl)cccc43)c(Cl)cc2CN[C@@H]2CCC[C@@H]2O)c1,< 5 nM
